The subject of assay [1] is DENV2 strain S16803. The protocol: The antiviral activity of peptide PHB4 was evaluated after treatments facilitating its aggregation or in the presence of different agents that modulate aggregation, with the purpose of examining their effect on the inhibitory activity of this peptide for the infection of Huh7.5 cells with DENV2 strain S16803. Huh7.5, a human hepatoma-derived cell line, was selected not only because it is permissive for DENV2, but because of its relevance as an experimental system from the viewpoint of DENV pathogenesis (Lin Y L, et al. (2000) J Med Virol.; 60(4):425-31).
Antiviral activity was evaluated in virus yield assays, in which 80-90% confluent Huh7.5 monolayers were washed twice with non-supplemented DMEM and then infected at a m.o.i of 0.01 for 2 h at 37° C. and 5% CO2 in the presence of the different peptide preparations, after which the viral inoculum was removed by washing with non-supplemented DMEM, and the cells were grown in DMEM supplemented with 2% FBS. Cell supernatants were collected at 24 h p.i., and virus yields were determined by titrating the supernatant in a plaque formation assay (Morens D. M., et al. (1985). N. J. Clin. Microbiology; 22: 250-254).
Therefore, a first series of assays was set up in which, starting from a 20 μM solution of the peptide in water, dilutions were prepared in MEM spanning the 10-0.01 μM concentration range, which were then incubated in parallel at 10° C. and 37° C. for 2 hours and then used in a viral inhibition assay. Non-incubated peptide dilutions (that is, prepared right before the viral inhibition assay) were used as controls.
A second experiment was designed to determine the influence of aggregation time on the antiviral potency of peptide PHB4 (FIG. 18). […] This incubation with HSA was performed in parallel at either 10° C. or 37° C.

Assay [2] has as its system DENV1. Kind of assay: In vivo protection assay, intracranial challenge, DENV1. The arrangement: species or system Balb/c mice. The conditions noted are these: 30 μg peptide inoculated intracranially with 10 median lethal doses, 21 days. The procedure: (§1) An experiment was set up to evaluate the in vivo antiviral activity of peptide PHB4 and compare it to that of peptide HDIII3CL. For this purpose, groups of 12 adult Balb/c mice (20 g average body weight) were anesthetized by ether inhalation and inoculated intracranially with 20 μL of viral preparations containing 10 times the median lethal dose of this model and the peptide to be evaluated. The animals recovered quickly and already appeared alert five minutes after the treatment, and were monitored afterwards for 21 days. The data were evaluated using the Kaplan-Meier logarithmic rank test.

Assay [3] concerns DENV2. Kind of assay: In vivo protection assay, intracranial challenge, DENV2. The arrangement: species or system Balb/c mice. The note with it: 30 μg peptide inoculated intracranially with 10 median lethal doses, 21 days. The protocol:
as §1

Assay [4] relates to DENV3 (NIBSC code CH53489). Kind of assay: Plaque reduction assay in Vero cells, DENV3. It is filed as cell-based, Dengue virus. The note with it: m.o.i. 0.001, read-out: Antiviral activity IC50 vs DENV3. The procedure: (§2) The cells were grown in 24 well plates until the monolayer reached approximately 90% confluence, after which they were washed twice with MEM medium without Fetal Bovine Serum (FBS). Then, peptide dilutions were added and the cell-peptide mixtures were incubated typically for 1 hour at 37° C., followed by the addition of a DENV serotype 2 preparation (NIBSC code S16803) at a multiplicity of infection (m.o.i.) of 0.001. The cells were then incubated for 1 hour at 37° C., and once the period of incubation with the viral inoculum concluded, were washed again to remove unbound virions and incubated for 5 days at 37° C. in high density medium (MEM supplemented with non-essential amino acids, 1% FBS, 1% carboxymethylcellulose) in order to let viral plaques form. Afterwards, the cells were stained with 0.1% Naphtol Blue Black in 0.15 M sodium acetate. Two replicates per experimental point were used in each assay, and three independent determinations were performed for each sample.
(§3) Next, it was decided to compare the antiviral activity of peptides PHB4 and HDIII3CL against all four DENV serotypes, with the objective of comparing their respective IC50 values. […]
In general terms: Plaques are areas of infected cells; plaque reduction assays count them against a control.

Assay [5] relates to DENV3. As to the kind of experiment: In vivo protection assay, intracranial challenge, DENV3. The arrangement: species or system Balb/c mice. The conditions noted are these: 30 μg peptide, morbidity evaluated instead of lethality. The procedure: as §1
Assay [6] deals with DENV 4 (NIBSC code TVP360). Kind of assay: Plaque reduction assay in Vero cells, DENV4. The assay is classed as cell-based, Dengue virus. The conditions noted are these: m.o.i. 0.001, read-out: Antiviral activity IC50 vs DENV4. The procedure: as §2, §3

Read-outs that look alike come from different tables or passages of the source. Marks after values point to notes of the source that are not given here. Where a SMILES comes first, the peptide text is derived from it. Bridges are numbered along the chain shown (N, C = ends). [ ]: non-standard residue; d: D form.

For `CC[C@H](C)[C@@H]1NC(=O)[C@H](Cc2ccccc2)NC(=O)[C@H](Cc2c[nH]c3ccccc23)NC(=O)[C@H](CC(N)=O)NC(=O)[C@H](C(C)C)NC(=O)[C@H](CCCCN)NC(=O)[C@H](Cc2c[nH]c3ccccc23)NC(=O)[C@H](CCCCN)NC(=O)[C@H]2CCCN2C(=O)[C@H](CCCNC(=N)N)NC(=O)[C@H]([C@@H](C)O)NC(=O)[C@H](Cc2c[nH]c3ccccc23)NC(=O)[C@H](Cc2ccc(O)cc2)NC(=O)[C@H](C(C)C)NC(=O)[C@H](CCC(=O)O)NC(=O)[C@H]([C@@H](C)CC)NC(=O)[C@@H](N)CSSC[C@@H](C(=O)N[C@@H](CCCCN)C(=O)N[C@@H](CCCCN)C(=O)N[C@@H](CCCCN)C(N)=O)NC1=O` [PHB4] (H-CIEVYWTR[dP]KWKVNWFICKKK-NH2; disulfide 1-18; N-terminus assumed), in assay [1] (10° C. vs 37° C. pre-incubation), the “Variation in potency with incubation temperature” value turned out to be 24 fold. For the same compound, the IC100 in assay [1] (Huh7.5 cells, non-incubated peptide in MEM) came to 10 µM. The IC50 worked out at 37 nM in assay [1] (read-out: IC50, 2 hrs-10° C., Huh7.5 cells, peptide pre-incubated in MEM 2 h at 10° C.); 890 nM in assay [1] (read-out: IC50, 2 hrs-37° C., Huh7.5 cells, peptide pre-incubated in MEM 2 h at 37° C.); 160 nM in assay [1] (read-out: IC50, no incubation, Huh7.5 cells, peptide dissolved in MEM, non-incubated); 5 nM in assay [4]; 10 nM in assay [6]. For the same compound, the “Protection (%) DENV1” value in assay [2] was 100*** %. Also, the “Protection (%) DENV2” value in assay [3] is 100*** %. The “Protection (%) DENV3” value in assay [5] is listed as 100*** %.

What is called IC50 is the concentration that gives 50% inhibition.

Values taken from US9896482B2, “Beta hairpin peptides having antiviral properties against Dengue virus” (CENTRO DE INGENIERÍA GENÉTICA Y BIOTECNOLOGÍA, priority 2014, dated 2018).
